According to patent US20260263613A1, “USE OF DRUG C[…]-CD20 ANTIBODY-DRUG CONJUGATE IN PREPARATION OF DRUG FOR TREATING NHL” (priority 2023, published 2026):
Where “and” joins values, the source holds several entries; their conditions need not be identical. Equal entries are not always repeated.

Legend:
[1] = tested on: human lymphoma WSU-DLCL2 cell xenograft tumor; assay: Inhibition of human lymphoma WSU-DLCL2 cell xenograft tumor growth; assay type: in vivo, SCID mouse
Procedure: Example 3: Inhibition of Human Lymphoma WSU-DLCL2 Cell Xenograft Tumor Growth by TRS005 Alone and TRS005 in Combination with CHP Compared to R-CHOP Regimen Administration Drug Information, Model Establishment, Grouping, and Administration
The TRS005 finished product is provided by Zhejiang Teruisi Pharmaceutical Inc., and other positive drugs are commercially available. Among them, MabThera, Cyclophosphamide, Doxorubicin, Vincristine, and Prednisone are prepared with normal saline as the solvent to corresponding concentrations and stored at 4° C. away from light. The TRS005 finished product is reconstituted with sterile water for injection (WFI), and a corresponding volume of normal saline is added to prepare the corresponding concentration. The TRS005 finished product is reconstituted and packaged with WFI and stored at −70° C.
(§1) Under sterile conditions, each SCID mouse was inoculated with 0.1 mL of WSU-DLCL2 cell suspension at a concentration of 4×10^7/mL subcutaneously on the right back. When the mean tumor volume (TV) reached ~150 mm^3, animals were randomized into 4 groups according to their TV: Group 1 (Vehicle), Group 2 (R-CHOP), Group 3 (TRS005) and Group 4 (TRS005-CHP (T-CHP)), with 6 mice in each group, so that the difference in TV of mice in each group was <10% of the mean. The day of grouping was recorded as Day 0, and the administration was started according to animal body weight (BW).
(§2) The BW and TV of animals were measured twice a week during the study. During the study, the clinical symptoms of animals were observed and recorded once a day. Clinical observations included general health status, abnormal BW and behavior of animals, and other treatment-related adverse reactions.
(§3) The tumor growth inhibition rate (% TGI) is calculated as follows: (1−TVT/TVC)×100%, where TVC is the mean TV of the negative control group, and TVT is the mean TV of the treatment group.
(§4) Relative Tumor Volume (RTV) is calculated as Vt/V0, where V0 is the TV at grouping and Vt is the TV at each measurement.
(§5) The calculation formula for relative tumor proliferation rate (% T/CRTV) is: • TRTV/CRTV×100%, where TRTV is the RTV of the treatment group and CRTV is the RTV of the negative control group.
(§6) According to the Technical Guidelines for Nonclinical Study of Cytotoxic Anti-tumor Drugs (November 2006) issued by NMPA in China, it is considered effective if % T/CRTV≤40% and P<0.05 after statistical analysis. Drug doses are considered to be severely toxic when the number of animal deaths related to the drug exceeds 20%.

[2] = Body weight and drug-related deaths of OCI-LY19 tumor-bearing animals; assay type: in vivo, mouse
Procedure: (§7) The drug information is the same as in Embodiment 3. Under sterile conditions, each mouse was inoculated with 0.1 mL of OCI-LY19 cell suspension at a concentration of 2×10^6/mL subcutaneously on the right back. When the mean TV reached ~150 mm^3, animals were randomized into 4 groups according to their TV: Group 1 (Vehicle), Group 2 (R-CHOP), Group 3 (TRS005) and Group 4 (T-CHP), with 10 mice in each group, so that the difference in TV of mice in each group was <10% of the mean. The day of grouping was recorded as Day 0, and the administration was started according to animal BW.
(§8) The BW and TV of animals were measured twice a week during the study. During the study, the clinical symptoms of animals were observed and recorded once a day. Clinical observations included general health status, abnormal BW and behavior of animals, and other treatment-related adverse reactions. During the study, if an individual experimental animal meets any of the following conditions, the animal will be removed from the study group and euthanized. 1. The body weight loss (BWL) of animals was ≥20% compared with Day 0; 2. Animals had serious adverse reactions, such as blindness and paralysis; 3. TV was >2000 mm^3; 4. Open ulcers were formed on the tumor surface.
(§9) The animal body weight change (% BWC) is calculated as follows: (BWt−BW0)/BW0×100%, where BWt is the animal BW at each measurement and BW0 is the animal BW at grouping.

[3] = tested on: human lymphoma OCI-LY19 cell xenograft tumors; assay: Growth inhibition of human lymphoma OCI-LY19 cell xenograft tumors; assay type: in vivo, mouse
Procedure: Embodiment 4: Growth Inhibition of Human Lymphoma OCI-LY19 Cell Xenograft Tumors by TRS005 Alone and TRS005 in Combination with CHP Compared to R-CHOP Regimen Administration
as §7, §8
The calculation formula for TV is: ½×a×b^2, where a and b are the measured length and width of the tumor, respectively.
as §3, §4, §5

[4] = Body weight and drug-related deaths of WSU-DLCL2 tumor-bearing animals; assay type: in vivo, SCID mouse
Procedure: as §1, §2, §9, §6

In the case of “TRS005: anti-CD20 ADC; mAb is Rituximab or a biosimilar thereof, drug antibody ratio (DAR) 4.2±0.5”, the “Anti-tumor efficacy in words” value ([1]; WSU-DLCL2 xenograft (high CD20 expression), compared with the other regimens) is reported as “better efficacy than the R-CHOP regimen”, the “Tumor Volume (Mean ± SEM) Day 0” value ([1]; WSU-DLCL2 xenograft, Day 0 (at grouping, before dosing), 6 mice/group) is reported as 127.16 mm^3 and the “% T/CRTV Day 35” value ([1]; WSU-DLCL2 xenograft, Day 35) is reported as 17.81%. The “RTV Day 35” value ([1]; WSU-DLCL2 xenograft, Day 35, Vt/V0) was 2.44, the “Tumor Volume (Mean ± SEM) Day 35” value ([1]; WSU-DLCL2 xenograft, Day 35, TRS005 0.75 mg/kg IV BIW × 3 w, regimens per Table 2, 0.75 mg/kg) was 315.93±94.23 mm^3 and 315.93 mm^3 and the “% TGI Day 35” value ([1]; WSU-DLCL2 xenograft, Day 35, regimens per Table 2) was 81.94%. The “Body Weight of Mice (Mean ± SEM) Day 0” value ([2]; Day 0 (baseline)) was 20.95 ± 0.36 g, the “Body Weight of Mice (Mean ± SEM) Day 14” value ([2]; Day 14) was 22.76 ± 0.45 g and the “% BWC Day 14 vs Day 0” value ([2]; OCI-LY19 tumor-bearing mice) was 8.96%. For the same substance, the “Body weight change Day 14 vs Day 0 (in g)” value ([2]; OCI-LY19 tumor-bearing mice) was “(1.81 g)”, the “Safety / drug-related toxicity in words” value ([2]; OCI-LY19 tumor-bearing mice, during the study) was “good safety” and the “Number of Mice with Drug-related Deaths Day 14” value ([2]; deaths/number of mice) was 0/10. The “Tumor Volume (Mean ± SEM) Day 0” value ([3]; Day 0 (at grouping, before dosing), 10 mice/group) was 107.78 mm^3, the “% T/CRTV Day 14” value ([3]; Day 14) was 48.28% and the “% TGI Day 14” value ([3]; Day 14) was 51.87%. The “Tumor Volume (Mean ± SEM) Day 14” value ([3]; Day 14, TRS005 1.5 mg/kg IV BIW × 3 w, regimens per Table 5, 1.5 mg/kg) was 905.30±129.66 mm^3 and 905.30 mm^3, the “RTV Day 14” value ([3]; Day 14, Vt/V0) was 8.29 and the “Tumor Volume (Mean ± SEM) Day 17” value ([3]; Day 17) was 1182.02 mm^3. The “Tumor Volume (Mean ± SEM) Day 21” value ([3]; Day 21, remaining mice (Group 3 N = 9)) was 1764.32 mm^3, the “Tumor Volume (Mean ± SEM) Day 24” value ([3]; Day 24, remaining mice (Group 3 N = 6)) was 2274.64 mm^3 and the “Tumor Volume (Mean ± SEM) Day 28” value ([3]; Day 28, remaining mice (Group 2 N = 3, Group 3 N = 1, Group 4 N = 9)) was 0.00 mm^3. The “Body Weight of Mice (Mean ± SEM) Day 0” value ([4]; Day 0 (baseline)) was 20.12 ± 0.35 g, the “Body Weight of Mice (Mean ± SEM) Day 35” value ([4]; Day 35) was 20.78 ± 0.50 g and the “% BWC Day 35 vs Day 0” value ([4]; WSU-DLCL2 tumor-bearing mice) was 3.25%. For the same substance, the “Body weight change Day 35 vs Day 0” value ([4]; WSU-DLCL2 tumor-bearing mice) was 0.66 g, the “Safety / drug-related toxicity in words” value ([4]; WSU-DLCL2 tumor-bearing mice, during the study) was “good safety” and the “Number of Mice with Drug-related Deaths Day 35” value ([4]; deaths/number of mice) was 0/6.
